Measured values reported in patent publication US8420692B1, “Heterocyclic and carbonate derivatives of NDGA and their use as new anti-HIV and anti-cancer agents” (The Johns Hopkins University, priority 2006, dated 2013).
Read-outs that look alike come from different tables or passages of the source.

Legend:
[1] = test system: HIV Tat-regulated transactivation; assay: cells; format: cell-based; details: for Inhibition (%) of HIV Tat-regulated Transactivation in COS Cells: average of three experiments; for IC50: read-out: IC50, HIV Tat-regulated transactivation
Method: The COS cells were co-transfected with a Tat-producing plasmid and a plasmid containing the HIV LTR linked to the SeAP reporter gene. Transfected cells were treated with various concentrations of 5b P4N. After 48 h, aliquots of media were removed and analysis of SeAP activity was performed. The percent inhibition of SeAP activity by 5b P4N ? was calculated in comparison with the percent of growth inhibition of untransfected COS cells by P4N ?
The medium used for dilution of compounds and maintenance of cultures during the assay was the same as described above. Cultures were maintained in disposable tissue culture labware at 37° C. in a humidified atmosphere of CO2 (5.0%) in air. Compounds were dissolved as stock solutions in water or dimethyl sulfoxide (DMSO) at the concentration of 10 mM. The stock solutions were diluted with H2O (5a-d) or DMSO (6a,b and 7) and dilute by medium to the desired concentration by a 30-s vortex just before addition into the cell culture. Triplicate cell samples were seeded at density of ˜1.5×10^4 cell per well in Libro 24-well flat-bottom culture dishes (17-mm diameter), which were incubated for 24 h until they reached 50% confluence. The cells were cotransfected by the calcium phosphate procedure with DNA from plasmids pBC12/CMV/t2 (coding for Tat function, 0.20 μg/well) and pBC12/HIV/SeAP (0.40 μg/well). Cells and DNAs were kept in contact for 6.0 h; then the medium was aspirated and replaced by 500 μL of medium containing the test compound. The compound-treated cells were then incubated for additional 48 h. At the end of incubation, an aliquot of cell culture medium was removed and SeAP activities were analyzed by spectrametric method.^20 The sample of culture medium were heated at 65° C. for 5.0 min to inactivate endogenous phosphatases selectively (SeAP is thermal stable). The buffer solution of 2×SeAP (100 μL, 1.0 M diethanolamine, pH 9.8; 0.50 mM MgCl2; 10 mM L-homoarginine) was added to the culture medium sample (100 μL) in a 96-well flat-bottom culture dish (Corning). Then, the substrate solution ([…], 120 mM, p-nitrophenyl phosphate dissolved in 1×SeAP buffer) was dispensed into each well containing the reaction mixture. The absorbance at wavelength 405 nm specific for the hydrolysis product was read at 2.5 min intervals at 37° C. over the course of 60 min on an EL340i microplate reader (Bio-tek Instruments) with 5 s automatic shaking before each reading.
Two plasmid constructs^19 were used to test the effect of synthesized NDGA derivatives on Tat-regulated HIV transactivation as described previously.^12,13,19 The plasmid constructs included a cytomegalovirus (CMV) promoter driven tat gene and SP1 regulated HIV LTR promoter driven reporter gene (i.e., SeAP). A standard SeAP assay in the absence of drug was initially run to find out efficiency of transfection.

[2] = Stability in aqueous solution (time dependent UV spectra); format: physicochemical
Method: FIG. 1: Stability of Two NDGA Derivatives G4N and P4N(HCl salts) in Aqueous Solution. Time Dependent Changes in UV spectra showing (a) G4N is unstable and (b) meso-2,3-dimethyl-1,4-bis(3,4-[2-piperidino)ethoxyphenyl])butane (P4N) (compound 5b in Scheme 1) (day 1, 2, 8, 13, 28) is stable in Milli-Q water after 28 days at 20° C.
The new NDGA derivatives (Scheme 1) were found stable in aqueous solution; >99% of these compounds remained intact after 28 days (see FIG. 1(b)). In a sharp contrast, >96% G4N (4) decomposed in aqueous solution within 24 h (see FIG. 1(a)).

[3] = test system: HIV Tat-regulated transactivation; details: values from references 9 and 12; read-out: IC50, Tat-regulated SeAP production (reference compounds); cited from earlier work
[4] = COS cells, SeAP, mean of triplicate determinations
[5] = Human immunodeficiency virus 1, COS, read-out: Inhibition (%) of HIV Tat-regulated Transactivation in COS Cells

With C[C@H](Cc1ccc(OCCN2CCCC2)c(OCCN2CCCC2)c1)[C@@H](C)Cc1ccc(OCCN2CCCC2)c(OCCN2CCCC2)c1.Cl.Cl.Cl.Cl [Compound 5a, meso-2,3-Dimethyl-1,4-bis(3,4-[2-(pyrrolidino)ethoxyphenyl])butane Tetrakishydrochloride Salt] the “Inhibition (%) of HIV Tat-regulated Transactivation in COS Cells” value (“Inhibition (%)” below) ([1]; 0.10 μM) was 18.1%, the “Inhibition (%)” value ([1]; 0.25 μM) was 15.4% and the “Inhibition (%)” value ([1]; 0.50 μM) was 27.2%. For the same compound, the “Inhibition (%)” value ([1]; 1.0 μM) was 19.6%, the “Inhibition (%)” value ([1]; 2.5 μM) was 31.0% and the “Inhibition (%)” value ([1]; 5.0 μM) was 14.1%. For the same compound, the “Inhibition (%)” value ([1]; 10 μM) was 26.3%, the “Inhibition (%)” value ([1]; 20 μM) was 59.1% and the “Inhibition (%)” value ([1]; 40 μM) was 94.8%. The “Inhibition (%)” value ([1]; 80 μM) was 97.1%, the “Inhibition (%)” value ([1]; 100 μM) was 100% and the IC50 [1, 4] was 17.2 µM.
For C[C@H](Cc1ccc(OCCN2CCOCC2)c(OCCN2CCOCC2)c1)[C@@H](C)Cc1ccc(OCCN2CCOCC2)c(OCCN2CCOCC2)c1.Cl.Cl.Cl.Cl [Compound 5c, meso-2,3-Dimethyl-1,4-bis(3,4-[2-(morpholino)ethoxyphenyl])butane Tetrakishydrochloride Salt], the “Inhibition (%)” value ([1]; 0.10 μM) was 5.0%, the “Inhibition (%)” value ([1]; 0.25 μM) was 16.5% and the “Inhibition (%)” value ([1]; 0.50 μM) was 9.9%. For the same compound, the “Inhibition (%)” value ([1]; 1.0 μM) was 8.1%, the “Inhibition (%)” value ([1]; 2.5 μM) was 4.6% and the “Inhibition (%)” value ([1]; 5.0 μM) was 13.3%. For the same compound, the “Inhibition (%)” value ([1]; 10 μM) was 25.4%, the “Inhibition (%)” value ([1]; 20 μM) was 58.9% and the “Inhibition (%)” value ([1]; 40 μM) was 86.0%. The “Inhibition (%)” value ([1]; 80 μM) was 96.8%, the “Inhibition (%)” value ([1]; 100 μM) was 100% and the IC50 [1, 4] was 17.3 µM.
In the case of C[C@H](Cc1ccc(OCCCN2CCOCC2)c(OCCCN2CCOCC2)c1)[C@@H](C)Cc1ccc(OCCCN2CCOCC2)c(OCCCN2CCOCC2)c1.Cl.Cl.Cl.Cl [Compound 5d, meso-2,3-Dimethyl-1,4-bis(3,4-[3-(morpholino)propoxyphenyl])butane Tetrakishydrochloride Salt], the “Inhibition (%)” value ([1]; 0.10 μM) is reported as 15.0%, the “Inhibition (%)” value ([1]; 0.25 μM) is reported as 15.9% and the “Inhibition (%)” value ([1]; 0.50 μM) is reported as 10.6%. For the same compound, the “Inhibition (%)” value ([1]; 1.0 μM) was 9.5%, the “Inhibition (%)” value ([1]; 2.5 μM) was 52.7% and the “Inhibition (%)” value ([1]; 5.0 μM) was 89.5%. The “Inhibition (%)” value ([1]; 10 μM) was 96.0%, the “Inhibition (%)” value ([1]; 20 μM) was 99.9% and the “Inhibition (%)” value ([1]; 40 μM) was 99.8%. For the same compound, the “Inhibition (%)” value ([1]; 80 μM) was 100%, the “Inhibition (%)” value ([1]; 100 μM) was 89.5% and the IC50 [1, 4] was 2.41 µM.
With C[C@H](Cc1ccc(OC(=O)N2CCCCC2)c(OC(=O)N2CCCCC2)c1)[C@@H](C)Cc1ccc(OC(=O)N2CCCCC2)c(OC(=O)N2CCCCC2)c1 [Compound 6a, meso-2,3-Dimethyl-1,4-bis[3,4-(phenylpiperidine-1-carboxylate)]butane] the “Inhibition (%)” value ([1]; 0.10 μM) was 0%, the “Inhibition (%)” value ([1]; 0.25 μM) was 3.5% and the “Inhibition (%)” value ([1]; 0.50 μM) was 5.8%. The “Inhibition (%)” value ([1]; 1.0 μM) was 11.7%, the “Inhibition (%)” value ([1]; 2.5 μM) was 46.2% and the “Inhibition (%)” value ([1]; 5.0 μM) was 78.6%. The “Inhibition (%)” value ([1]; 10 μM) was 84.0%, the “Inhibition (%)” value ([1]; 20 μM) was 86.1% and the “Inhibition (%)” value ([1]; 40 μM) was 83.8%. The “Inhibition (%)” value ([1]; 80 μM) was 90.1%, the “Inhibition (%)” value ([1]; 100 μM) was 89.8% and the IC50 [1, 4] was 2.79 µM.
With COC(=O)Oc1ccc(C[C@@H](C)[C@@H](C)Cc2ccc(OC(=O)OC)c(OC(=O)OC)c2)cc1OC(=O)OC [Compound 6b, meso-2,3-Dimethyl-1,4-bis[3,4-(methylphenyl carbonate)]butane] the “Inhibition (%)” value ([1]; 0.10 μM) was 9.8%, the “Inhibition (%)” value ([1]; 0.25 μM) was 12.3% and the “Inhibition (%)” value ([1]; 0.50 μM) was 16.0%. For the same compound, the “Inhibition (%)” value ([1]; 1.0 μM) was 13.1%, the “Inhibition (%)” value ([1]; 2.5 μM) was 15.1% and the “Inhibition (%)” value ([1]; 5.0 μM) was 38,0%. For the same compound, the “Inhibition (%)” value ([1]; 10 μM) was 51,6%, the “Inhibition (%)” value ([1]; 20 μM) was 58.4% and the “Inhibition (%)” value ([1]; 40 μM) was 70.8%. For the same compound, the “Inhibition (%)” value ([1]; 80 μM) was 93.4%, the “Inhibition (%)” value ([1]; 100 μM) was 88.9% and the IC50 [1, 4] was 9.41 µM.
Compound C[C@H](Cc1ccc2oc(=O)oc2c1)[C@@H](C)Cc1ccc2oc(=O)oc2c1 [Compound 7, meso-2,3-Dimethyl-1,4-bis(benzo[d][1,3]-dioxol-2-one)butane] has an IC50 ([1]; Human immunodeficiency virus 1, COS) of 8.54 µM, an inhibition at 0.1 µM [1, 5] of 7.5% and an inhibition at 0.25 µM [1, 5] of 18.1%. It also gave an inhibition at 0.5 µM [1, 5] of 4.2%, an inhibition at 1 µM [1, 5] of 5.9% and an inhibition at 2.5 µM [1, 5] of 23.7%. The inhibition at 5 µM [1, 5] was 47.1%, the inhibition at 10 µM [1, 5] was 51.2% and the inhibition at 20 µM [1, 5] was 68.8%. The inhibition at 40 µM [1, 5] was 85.7%, the inhibition at 80 µM [1, 5] was 96.3% and the inhibition at 100 µM [1, 5] was 91.6%. It also gave a melting point of 172.6 to 173.4 °C.
With C[C@H](Cc1ccc(OC(=O)CN(C)C)c(OC(=O)CN(C)C)c1)[C@@H](C)Cc1ccc(OC(=O)CN(C)C)c(OC(=O)CN(C)C)c1 [Compound G4N, (tetra-O-dimethylglycyl)nordihydroguaiaretic acid] the “Stability in Milli-Q water (UV spectra)” value ([2]; HCl salts, 28 days at 20° C., FIG. 1) was “unstable” and the “Compound decomposed in aqueous solution” value ([2]; within 24 h) was > 96%.
For COc1ccc(C[C@@H](C)[C@@H](C)Cc2ccc(OC)c(OC)c2)cc1OC [Compound M4N, (tetra-O-methyl)nordihydroguaiaretic acid], the IC50 [3] is given as 11.1 µM.
For COc1cc(C[C@H](C)[C@H](C)Cc2ccc(O)c(O)c2)ccc1O [Mal.4], the IC50 [3] is listed as 25 µM.
For C[C@H](Cc1ccc(O)c(O)c1)[C@@H](C)Cc1ccc(O)c(O)c1 [NDGA, Nordihydroguaiaretic acid], the IC50 [3] is listed as 20 µM.
